Experimental data published in patent US7977349B2, “Substituted quinolones III” (Aicuris GmbH & Co. KG, priority 2006, dated 2011).
Where a name gives a salt, the structure may show the parent alone.

How the values were obtained:
[1] = test system: NHDF (human prepuce fibroblasts); assay: Cytostatic effects on NHDF cells in the anti-HCMV cytopathogenicity test; type: cell-based; details: concentration at which no visible cytostatic effects on NHDF cells are evident vs untreated cell control; 6 days
Protocol: (§1) Anti-HCMV (Anti-Human Cytomegalovirus) Cytopathogenicity Tests The test compounds are employed as 50 millimolar (mM) solutions in dimethyl sulfoxide (DMSO). Ganciclovir®, Foscarnet® and Cidofovir® are used as reference compounds. After the addition of 2 μl of the 50, 5, 0.5 and 0.05 mM DMSO stock solutions respectively to 98 μl portions of cell culture medium in row […] for duplicate determinations, 1:2 dilutions are carried out with 50 μl portions of medium up to row 11 of the 96-well plate. The wells in rows 1 and 12 each contain 50 μl of medium. 150 μl of a suspension of 1×10^4 cells (human prepuce fibroblasts [NHDF]) are then pipetted into each of the wells (row 1=cell control) and, in rows 2-12, a mixture of HCMV-infected and uninfected NHDF cells (M.O.I.=0.001-0.002), i.e. 1-2 infected cells per 1000 uninfected cells. Row 12 (without substance) serves as virus control. The final test concentrations are 250-0.0005 μM. The plates are incubated at 37° C./5% CO2 for 6 days, i.e. until all the cells in the virus controls are infected (100% cytopathogenic effect [CPE]). The wells are then fixed and stained by adding a mixture of formalin and Giemsa's dye (30 minutes), washed with double-distilled water and dried in a drying oven at 50° C. The plates are then assessed visually using an overhead microscope (plaque multiplier from Technomara). The following data can be obtained from the test plates: CC50 (NHDF)=substance concentration in μM at which no visible cytostatic effects on the cells are evident compared with the untreated cell control;

HCMV = assay: Anti-HCMV (anti-human cytomegalovirus) cytopathogenicity test; type: cell-based; details: concentration inhibiting the CPE by 50% vs untreated virus control, HCMV-infected NHDF cells, 6 days, visual assessment
Protocol: as §1, with “plates: EC50 (HCMV)=substance” for “plates: CC50 (NHDF)=substance”, “μM” for “μM at”, “which inhibits” for “which no visible cytostatic effects on”, “the CPE (cytopathic effect) by 50%” for “the cells are evident”, “untreated virus” for “untreated cell”

[2] = Cytostatic effects on NHDF cells in the anti-HCMV cytopathogenicity test; type: cell-based, human; details: human, concentration at which no visible cytostatic effects on NHDF cells are evident vs untreated cell control
Protocol: as §1

[3] = Human betaherpesvirus 5, NHDF, 144 h

| Compound | EC50 (HCMV) [µM] | EC50 (HCMV; [3]) [µM] | CC50 [1] [µM] | CC50 at 6 days [2] [µM] |
| --- | --- | --- | --- | --- |
| COc1c(N2CCC(C(=O)O)CC2)c(F)cc2c(=O)c(C(=O)NCc3ccc(OC(F)(F)F)cc3C)cn(CC(F)(F)F)c12 [Example 76, 1-[6-Fluoro-8-methoxy-3-({[2-methyl-4-(trifluoromethoxy)benzyl]amino}carbonyl)-4-oxo-1-(2,2,2-trifluoroethyl)-1,4-dihydroquinolin-7-yl]piperidine-4-carboxylic acid choline salt] | 0.002 | – | 47 | – |
| COc1c(N2CCC(C(=O)O)CC2)c(F)cc2c(=O)c(C(=O)NCc3ccc(OC(F)(F)F)cc3C)cn(CC(F)(F)F)c12 [Example 75, 1-[6-Fluoro-8-methoxy-3-({[2-methyl-4-(trifluoromethoxy)benzyl]amino}carbonyl)-4-oxo-1-(2,2,2-trifluoroethyl)-1,4-dihydroquinolin-7-yl]piperidine-4-carboxylic acid diethanolamine salt] | 0.002 | – | 47 | – |
| COc1c(N2CCC(C(N)=O)CC2)c(F)cc2c(=O)c(C(=O)NCc3ccc(Cl)cc3C)cn(CC(F)(F)F)c12 [Example 28] | – | 0.014 | – | 21 |
| COc1c(N2CCC(CC(=O)O)CC2)c(F)cc2c(=O)c(C(=O)NCc3ccc(Cl)cc3C)cn(C3CC3)c12 [Example 67] | – | 0.061 | – | 21 |
| COc1c(N2CCC(C(=O)O)CC2)c(F)cc2c(=O)c(C(=O)NCc3ccc(Cl)cc3Cl)cn(CC(F)(F)F)c12 [Example 50, 1-[3-{[(2,4-Dichlorobenzyl)amino]carbonyl}-6-fluoro-8-methoxy-4-oxo-1-(2,2,2-trifluoroethyl)-1,4-dihydroquinolin-7-yl]piperidine-4-carboxylic acid] | – | 0.012 | – | 47 |

Continued, in another order:

| EC50 (HCMV) [µM] | EC50 (HCMV; [3]) [µM] | Compound | CC50 [1] [µM] | CC50 at 6 days [2] [µM] |
| --- | --- | --- | --- | --- |
| – | 0.006 | COc1c(N2CCC(C(=O)O)CC2)c(F)cc2c(=O)c(C(=O)NCc3ccc(OC(F)(F)F)cc3C)cn(CCF)c12 [Example 49, 1-[6-Fluoro-1-(2-fluoroethyl)-8-methoxy-3-({[2-methyl-4-(trifluoromethoxy)benzyl]amino}carbonyl)-4-oxo-1,4-dihydroquinolin-7-yl]piperidine-4-carboxylic acid] | – | 94 |
| – | 0.006 | Cc1cc(OC(F)(F)F)ccc1CNC(=O)c1cn(CC(F)(F)F)c2c(O)c(N3CCC(C(=O)O)CC3)c(F)cc2c1=O [Example 77, 1-[6-Fluoro-8-hydroxy-3-({[2-methyl-4-(trifluoromethoxy)benzyl]amino}carbonyl)-4-oxo-1-(2,2,2-trifluoroethyl)-1,4-dihydroquinolin-7-yl]piperidine-4-carboxylic acid] | – | 250 |
| – | 0.003 | COc1c(N2CCC(C(=O)O)CC2)c(F)cc2c(=O)c(C(=O)NCc3ccc(OC(F)(F)F)cc3Cl)cn(CC(F)(F)F)c12 [Example 48, 1-[3-({[2-Chloro-4-(trifluoromethoxy)benzyl]amino}carbonyl)-6-fluoro-8-methoxy-4-oxo-1-(2,2,2-trifluoroethyl)-1,4-dihydroquinolin-7-yl]piperidine-4-carboxylic acid] | – | 20 |
